Test results taken from patent US7855232B2, “Organoselenium compound for cancer chemoprevention” (LKT Laboratories, Inc., priority 2001, dated 2010).

System: aberrant crypts (AC)
Assay: Inhibition of DMH-induced aberrant crypt (AC) formation in colon
Format: in vivo, Female CF1 mice
Settings: with DMH
Text: Precancerous lesions called aberrant crypts (AC) are used as a marker for colon carcinogenesis. Mice and rats, when exposed to colon-specific carcinogen, develop preneoplastic changes in colon crypts which leads to malignancy through dysplasia-carcinoma sequence. […] McLellan et al., Cancer Res. 48:6183-6186 (1988); McLellan et al., Cancer Res. 48:2311-2315 (1988).
The effect of colon-specific carcinogenesis is typically seen in the induction of AC formation in less than two weeks. AC formation is dose dependent and can be quantitated without elaborate instrumentation. In view of the short time-frame required to get quantifiable results, this bio-assay is a useful prescreening tool for the evaluation of chemopreventative efficacy of compounds that are effective against colon cancer. The protocol for aberrant crypts is shown below:
Female CF1 mice, 3 weeks of age, were purchased from Harlan Sprague-Dawley, Indianapolis, 1N. They were housed, 5 mice per cage, in temperature and humidity-controlled animal quarters with 12 hours light/dark cycle and fed AIN 76A semipurified diet until the ent of the experiment. Water was given ad libitim. The animals were separated into experimental and control groups. The test compounds 0.03-0.04 mmol/kg body weight dissolved in 0.3 mL corn oil, were given by gavage one per day for 8 days. One hour after the inhibitors administration on the 4th and 8th days, 0.4 mg of DMH in 0.2 mL of 0.001 M EDTA, adjusted to pH 6.5 with sodium bicarbonate, was given by gavage. Starting on the 9th day, the inhibitors were given once every other day for an additional 3 weeks. This regimen of inhibitor administration ensures the coverage both the initiation and post initiation periods of carcinogen exposure.
At the end of the 3 week period, the animals were sacrificed and the colons removed. The starting and terminating weights of the animals were recorded. The procedures for the determination of aberrant crypts were those reported by Bird (Cancer Letters 37:147-151 (1987)). The mouse colon including the caecum was removed, rinsed with PBS, and opened longitudinally. The colon contents was removed by washing with PBS. The colon was spread mucosal side up on a piece of filter paper and fixed in buffered formalin overnight. It was then stained with 0.2% methylene blue in PBS for 60 min. The AC foci was read under light microscope. The AC are topographically distinguished by their increased size, increased pericryptal zone, and thicker and deeply stained epithelial lining compared to normal crypts. The number of foci and AC in the colorectal and caecal parts of the colon were recorded separately. The significance of the data was determined by the analysis of variance method. The significance of the incidence of aberrant crypts bearing animals was analyzed by the X^2 test. The aberrant crypts were examined histologically to verify the dysplastic nature of the changes in animals treated with carcinogens and those treated with carcinogens and inhibitors.

N#C[Se]Cc1ccc(C[Se]C#N)s1 [(2) TDMSC, thienyl-2,5-di-methylene selenocyanate]
ACF/Colon (low dose 0.03 mmol/kg body weight, gavage, DMH alone 1.13): 0.50 | AC/Foci (low dose 0.03 mmol/kg body weight, gavage, DMH alone 1.28): 1.00 | AC/Colon (low dose 0.03 mmol/kg body weight, gavage, DMH alone 1.44): 0.50 | Total ACF (low dose 0.03 mmol/kg body weight, gavage, DMH alone 18): 4 | Total AC (low dose 0.03 mmol/kg body weight, gavage, DMH alone 23): 4 | % animals (low dose 0.03 mmol/kg body weight, gavage, DMH alone 43.7): 24.0% | protection (inhibition of aberrant crypt formation) (low dose): more than 50%
